Data from PubChem BioAssay (NCI).
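Following 48 hours of exposure in 96-well plates, responses at five concentrations were used to interpolate endpoints linearly. Here, GI50 denotes the concentration required for 50% inhibition of growth. The concentration for full growth arrest is given as TGI.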

Assays:
Experiment in all cases: growth of human tumour cells (NCI), 48 h
[1] = system: RPMI-8226 leukemia
[2] = system: SF-295 CNS
[3] = system: ACHN renal
[4] = system: NCI-H460 lung
[5] = system: SK-OV-3 ovarian
[6] = system: HCT-116 colon
[7] = system: SF-539 CNS
[8] = system: M14 melanoma
[9] = system: NCI/ADR-RES ovarian
[10] = system: MDA-N
[11] = system: BT-549 breast
[12] = system: OVCAR-3 ovarian

| Compound | TGI [1] [µM] | TGI [2] [µM] | TGI [3] [µM] | TGI [4] [µM] | TGI [5] [µM] | TGI [6] [µM] | TGI [7] [µM] | TGI [8] [µM] | TGI [9] [µM] | TGI [10] [µM] | TGI [11] [µM] | TGI [12] [µM] | GI50 [1] [µM] | GI50 [2] [µM] | GI50 [5] [µM] | GI50 [6] [µM] | GI50 [8] [µM] | GI50 [9] [µM] | GI50 [11] [µM] | GI50 [12] [µM] |
| --- | --- | --- | --- | --- | --- | --- | --- | --- | --- | --- | --- | --- | --- | --- | --- | --- | --- | --- | --- | --- |
| C/C(=C\c1ccccc1)n1c(=O)cc(C)n1C | > 100 | > 100 | > 100 | > 100 | > 100 | > 100 | > 100 | > 100 | > 100 | > 100 | > 100 | > 100 |  |  |  |  |  |  |  |  |
| H-KIFKKFKTIIKKVWRIFGRF-NH2 | > 100 | 4.68 |  |  | 7.39 | > 100 |  | > 100 | 9.57 |  | > 100 | 5.01 | 3.11 | 2.05 | 3.17 | 3.22 | 2.37 | 2.95 | 3.54 | 2.14 |
